Test results reported in ChEMBL document CHEMBL1157452, “First synthesis of alpha-aminoalkyl-(N-substituted)thiocarbamoyl-phosphinates: inhibitors of aminopeptidase N (APN/CD13) with the new zinc-binding group” (Bioorg Med Chem Lett, 2008).

Biological target: T1, Aminopeptidase N (Sus scrofa, UniProt P15145)
T1 sequence (P15145 whole entry): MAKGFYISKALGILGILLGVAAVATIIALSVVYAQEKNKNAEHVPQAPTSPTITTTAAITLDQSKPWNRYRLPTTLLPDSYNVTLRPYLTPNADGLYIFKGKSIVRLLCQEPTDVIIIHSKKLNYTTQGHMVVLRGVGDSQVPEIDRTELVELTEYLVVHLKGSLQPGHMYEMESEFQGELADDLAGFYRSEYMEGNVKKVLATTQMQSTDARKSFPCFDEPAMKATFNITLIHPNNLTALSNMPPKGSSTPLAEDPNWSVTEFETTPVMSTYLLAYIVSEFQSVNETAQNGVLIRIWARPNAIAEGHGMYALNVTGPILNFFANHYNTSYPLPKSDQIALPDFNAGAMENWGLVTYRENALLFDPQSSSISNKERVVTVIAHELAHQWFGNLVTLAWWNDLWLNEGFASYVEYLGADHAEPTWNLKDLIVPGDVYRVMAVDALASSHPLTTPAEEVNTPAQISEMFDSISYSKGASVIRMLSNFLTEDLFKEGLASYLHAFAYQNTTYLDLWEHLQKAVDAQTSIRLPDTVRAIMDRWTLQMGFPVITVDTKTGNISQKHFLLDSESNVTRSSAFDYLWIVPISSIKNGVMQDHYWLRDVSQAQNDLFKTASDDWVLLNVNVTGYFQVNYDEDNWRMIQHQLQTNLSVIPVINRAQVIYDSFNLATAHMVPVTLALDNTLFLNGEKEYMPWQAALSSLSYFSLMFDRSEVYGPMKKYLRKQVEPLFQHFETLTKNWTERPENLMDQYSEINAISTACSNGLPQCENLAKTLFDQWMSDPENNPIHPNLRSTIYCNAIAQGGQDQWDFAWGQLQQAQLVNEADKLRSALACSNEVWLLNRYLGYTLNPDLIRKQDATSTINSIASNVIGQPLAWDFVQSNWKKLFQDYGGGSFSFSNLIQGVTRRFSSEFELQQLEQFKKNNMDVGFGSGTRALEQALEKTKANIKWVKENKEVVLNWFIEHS
Assay: Inhibition of pig kidney aminopeptidase N

Row | SMILES | IC50 | Ki
1 | CNC(=S)P(=O)(O)C(N)CC(C)C (configuration not stated) | 10.6 µM | –
2 | CC(N)P(=O)(O)C(=S)NCCc1ccccc1 (configuration not stated) | 4.2 µM | –
3 | CCCCCCNC(=S)P(=O)(O)C(N)CC(C)C (configuration not stated) | 0.5 µM | –
4 | CCCC(N)P(=O)(O)C(=S)NCCc1ccccc1 (configuration not stated) | 2.28 µM | –
5 | CCCCCCNC(=S)P(=O)(O)C(N)C(C)C (configuration not stated) | 1.18 µM | –
6 | CC(C)CNC(=S)P(=O)(O)C(N)C(C)C (configuration not stated) | 1.9 µM | –

Continued, values first:

Row | IC50 | Ki | SMILES
7 | 0.68 µM | – | CCCC(N)P(=O)(O)C(=S)NCc1ccc(OC)cc1 (configuration not stated)
8 | 0.38 µM | – | COc1ccc(CNC(=S)P(=O)(O)C(N)CCc2ccccc2)cc1 (configuration not stated)
9 | 0.25 µM | 0.143 µM | CCCCC(N)P(=O)(O)C(=S)NCc1ccc(OC)cc1 (configuration not stated)
10 | 0.73 µM | – | CCCCC(N)P(=O)(O)C(=S)NCCc1ccccc1 (configuration not stated)
11 | 1.12 µM | – | COc1ccc(CNC(=S)P(=O)(O)C(C)N)cc1 (configuration not stated)
